Measured values: patent US20230124862A1, “BISMUTH THIOL COMPOUNDS AND COMPOSITIONS AND METHODS OF TREATING MICROBIAL CO-INFECTIONS” (Microbion Corporation, priority 2020, published 2023)

Assay: Particle size distribution of BisEDT samples vs processing conditions
Type: physicochemical
[1] = particle size distribution of BisEDT samples

| SMILES | D(10) (crystalline BisEDT samples) [μm] | D(50) (crystalline BisEDT samples) [μm] | D(90) (crystalline BisEDT samples) [μm] | D[4, 3] (crystalline BisEDT samples) [μm] | D(10) [1] [μm] | D(50) [1] [μm] | D(90) [1] [μm] | D[4, 3] [1] [μm] |
| --- | --- | --- | --- | --- | --- | --- | --- | --- |
| C1C[S][Bi]([S]CC[S][Bi]2[S]CC[S]2)[S]1 [Sample 1] | 0.80 | 2.4 | 5.9 | 2.9 | 0.80 | 2.4 | 5.9 | 2.9 |
| C1C[S][Bi]([S]CC[S][Bi]2[S]CC[S]2)[S]1 [Sample 2] | 0.58 | 1.7 | 3.9 | 2.0 | 0.58 | 1.7 | 3.9 | 2.0 |
| C1C[S][Bi]([S]CC[S][Bi]2[S]CC[S]2)[S]1 [Sample 3] | 0.59 | 1.9 | 4.5 | 2.3 | 0.59 | 1.9 | 4.5 | 2.3 |
| C1C[S][Bi]([S]CC[S][Bi]2[S]CC[S]2)[S]1 [Sample 4] | 0.44 | 1.48 | 3.1 | 1.7 | 0.44 | 1.48 | 3.1 | 1.7 |
| C1C[S][Bi]([S]CC[S][Bi]2[S]CC[S]2)[S]1 [Sample 5] | 0.33 | 0.72 | 1.6 | 0.86 | 0.33 | 0.72 | 1.6 | 0.86 |
| C1C[S][Bi]([S]CC[S][Bi]2[S]CC[S]2)[S]1 [Sample 6] | 0.34 | 0.87 | 1.8 | 0.98 | 0.34 | 0.87 | 1.8 | 0.98 |
| C1C[S][Bi]([S]CC[S][Bi]2[S]CC[S]2)[S]1 [Sample 7] | 0.39 | 1.3 | 1.6 | 1.4 | 0.39 | 1.3 | 1.6 | 1.4 |
| C1C[S][Bi]([S]CC[S][Bi]2[S]CC[S]2)[S]1 [Sample 8] | 0.36 | 1.0 | 1.8 | 1.0 | 0.36 | 1.0 | 1.8 | 1.0 |
| C1C[S][Bi]([S]CC[S][Bi]2[S]CC[S]2)[S]1 [Sample 9] | 0.67 | 1.0 | 1.9 | 1.1 | 0.67 | 1.0 | 1.9 | 1.1 |
| C1C[S][Bi]([S]CC[S][Bi]2[S]CC[S]2)[S]1 [Sample 10] | 0.36 | 0.88 | 1.7 | 0.97 | 0.36 | 0.88 | 1.7 | 0.97 |
| C1C[S][Bi]([S]CC[S][Bi]2[S]CC[S]2)[S]1 [Sample 11] | 0.38 | 1.2 | 2.4 | 1.4 | 0.38 | 1.2 | 2.4 | 1.4 |
| C1C[S][Bi]([S]CC[S][Bi]2[S]CC[S]2)[S]1 [Sample 12] | 0.37 | 1.2 | 2.4 | 1.3 | 0.37 | 1.2 | 2.4 | 1.3 |
